Test results reported in US8871741B2, “Inhibition of TNF-α induced activation of NFKB by pentosan polysulfate” (Icahn School of Medicine at Mount Sinai, priority 2010, dated 2014).
Read-outs that look alike come from different tables or passages of the source.

Key:
proximal tubular cells = conditions: for cell death: wild type proximal tubular cells, 24 hours
Experimental: To determine if CHOP played a role in ER stress induced renal cell death, primary proximal tubular cells were isolated from 2 month-old CHOP^−/− and wild type mice using a method described by Sheridan et al. (Am J Physiol 1993, 265:F342-350). Briefly, kidneys were perfused with a phosphate buffer solution and dynabead M-450 (5×10^5 beads/ml, Invitrogen, LA, CA). Cortices were then cut to small pieces and incubated with 0.1% collagenase and 100 u/ml DNase at 37° C. for 40 minutes. After pressing tissues through a 100 μm cell strainer (BD Biosciences, Bedford, Mass.) with a syringe plunger, glomeruli were removed by a magnetic concentrator. The remaining tissues were collected with a 40 μm cell strainer, washed and cultured with medium containing DMEM/F12 (1:1), 5 μg/ml transferrin, 5 μg/ml insulin, 50 nM hydrocortisone, 5% FBS, 100 u/ml each of penicillin and streptomycin. […] […] 24 hours later, cells were gently washed and stained with trypan blue, the number of live cells from each well was counted.

podocytes = experiment: Albumin permeability of podocyte monolayers (FITC-labeled BSA flux); type: cell-based; conditions: 2 hours after TNFα treatment (20 ng/ml)
Experimental: 1×10^5 podocytes were seeded onto collagen-coated transwell filters ([…] pore-size, Corning, N.Y., N.Y.) placed in the top chamber of each well of a 24-well plate. After cells reached confluence, some wells of cells were treated with TNFα (20 ng/ml), PPS (400 μg/ml), or PPS plus TNFα in 2% FBS medium for 8 hours. Then the medium from both the top and bottom chamber was completely removed, cells were washed twice with PBS and the top chamber was refilled with 0.2 ml 2% FBS medium supplemented with 0.5 mg/ml FITC-labeled BSA (Sigma Aldrich, St Louis, […].), while the bottom chamber was refilled with 0.6 ml 2% FBS medium supplemented with 0.5 mg/ml unlabeled BSA. At different time points, 100 μl aliquots were collected from the bottom chamber and fluorescence was measured by a fluorescence spectrophotometer (485 nm excitation, 535 nm emission). The concentration of FITC-BSA passing through the monolayer was determined by reference to a set of standard dilutions of FITC-BSA. The value of albumin flux through untreated monolayer was arbitrarily defined as 100%.

[1] = system: MCP-1, RANTES, CXCL1, MIP-2, ICAM-1, and iNOS mRNA; experiment: TNFα induced pro-inflammatory gene expression in proximal tubular cell line, real-time PCR; type: cell-based, mouse; conditions: TNFα 10 ng/ml, 4 hours, control defined as 1
Experimental: A proximal tubular cell line obtained from mice transgenic for SV40 T antigen was grown in DMEM containing 10% FBS. For the measurement of TNFα-stimulated gene expression, 1×10^5 proximal tubular cells were transferred to each well of a 6-well-plate. After placing the cells in 0.1% FBS medium for 24 hours, 10 ng/ml of TNFα was added to test wells. Total RNA was isolated from all wells 4 hours later. MCP-1, RANTES, CXCL1, MIP-2, ICAM-1, and iNOS mRNA levels were determined by real-time PCR as described above and corrected by β-actin mRNA levels. TNFα stimulated MCP-1 and RANTES production and release into the medium was measured in TNFα (10 ng/ml) treated and control cells at 24 hours. The amount of MCP-1 or RANTES in the medium was measured by ELISA (Invitrogen Corporation (Carlsband, Calif.).
To determine the effect of PPS on TNFα induced upregulation of proinflammatory genes, proximal tubular cells were pre-treated with PPS (200 μg/ml) for 1 hour before the addition of TNFα (10 ng/ml). MCP-1, RANTES, CXCL1, MIP-2, ICAM-1, and iNOS mRNA levels were determined 4 hours later by real-time PCR. MCP-1 and RANTES production was also measured.

MMP-2 = experiment: Zymography of U937 cell supernatants, MMP-2; type: cell-based, human; conditions: U937 cells, heparin 100 μg/ml
Experimental: Human pro-monocytic U937 cells were obtained from American Type Culture Collection (Manassas, Va.) and grown in RPMI medium supplemented with 10% FBS. U937 cells were plated in six-well plates at a density of 5×10^6 cells/ml. The cells were then stimulated with 10 ng/ml TNF-α, in the presence or absence of either increasing concentrations of PPS (10-100 μg/ml) or heparin (100 μg/ml), and incubated at 37° C. for 3 hours. Following stimulation, cells were placed in 0.1% BSA-serum-free medium for 16-18 hours. The media was then collected, centrifuged, and supernatants were stored at −80° C. for the assessment of MMP activity. The cell number was determined by direct cell counting.
MMP activity in aortic extracts and conditioned media from monocytes was assessed, as previously described (Jacot T A, et al., Lab Invest. 1996; 75:791-79). Briefly, aortic segments were homogenized and extracted in RIPA buffer (25 mM Tris, pH 7.4, 150 mM KCl, 5 mM EDTA, 1% Nonidet P-40, 0.5% sodium deoxycholate, and 0.1% SDS). Insoluble material was precipitated by centrifugation, and soluble extracts were collected and stored at −20° C. for further analysis. For in vitro experiments, cell supernatants were centrifuged to remove cellular debris, and diluted appropriately to normalize for cell number. Aortic extracts and conditioned media were then mixed with sample buffer (1% SDS, 0.08 M Tris pH 6.8, 4% glycerol, and 0.006% bromophenol blue), and loaded onto a 10% gelatin polyacrylamide gel, and processed as described (Jacot T A, et al., Lab Invest. 1996; 75:791-79). For reverse zymography, samples were loaded onto a 15% gelatin polyacrylamide gel containing 0.5% porcine gelatin and 6 μg recombinant gelatinase A, and processed as described (Elliot S J, et al., J Am Soc Nephrol. 1999; 10: 62-68).

## OO [H2O2, hydrogen peroxide]
Proximal tubular cells
  apoptotic cell death: dose dependent increase

## TNFα
podocytes
  increase in the amount of FITC-labeled albumin that passed through a monolayer of podocytes: 34%
[1]
  fold increase in mRNA expression of MCP-1, RANTES, CXCL-1, MIP-2, ICAM-1 and iNOS: 2-9 fold

## heparin
MMP-2
  effect of heparin treatment on MMP-2 activity compared with the PPS effect: comparable

## tunicamycin
Proximal tubular cells; proximal tubular cells exposed to inducers of oxidative stress or ER stress
  apoptotic cell death: dose dependent increase
Proximal tubular cells; 0.6 μg/ml of tunicamycin
  cell death: 38%
Proximal tubular cells; 1.2 μg/ml of tunicamycin
  cell death: 89%
